Assay results published in patent US12138286B2, “Combination method for treating or preventing childhood atopic disease” (Johnson & Johnson Consumer Inc., priority 2022, dated 2024).

Test system: high-risk infants
Parameters: species or system human
Settings: in vivo
Excerpt: High-risk infants were identified using parental history of atopic disease and were randomized to either the skin treatment regimen and composition or standard routine care, each set forth below, from soon after recruitment in the postnatal ward (approximately 4 day) until eight weeks of age. Both the intervention and standard of care groups were advised to use a standardized bathing routine for the first 2 months. • Skin treatment regimen and composition: twice daily whole-body application of […] & Long-Lasting Balm, which on pack contains the following ingredients: glycerin, aqua, cetearyl alcohol, isocetyl alcohol, dimethicone, cetyl alcohol, Avena sativa kernel flour, Avena sativa kernel extract, Avena sativa kernel oil, caprylic/capric triglyceride, ceramide 3, ethylhexylglycerin, p-anisic acid, sodium cetearyl sulfate, palmitic acid, stearic acid, sodium sulfate, sodium chloride, citric acid, dipotassium phosphate, potassium phosphate, sodium hydroxide, tocopherol, benzyl alcohol, benzoic acid, and potassium sorbate. • Control: Standard routine care, which involves no use of moisturizer for the first two months. Within approximately 4 days of birth, infants were randomized to either treatment with skin treatment regimen and composition or to standard routine skincare with no moisturizer until 2 months of age. […]

Substance: AVEENO® Dermexa Fast & Long-Lasting Balm [Intervention]
- Infants advised to stop applying the emollient after developing a rash with a potential temporal relationship with the emollient: One
- Parent-reported skin infections: 5%
